Experimental data from patent US9732094B2, “Arylquinazolines” (Merck Patent GmbH, priority 2013, dated 2017).
Where two headings read alike, the source gives them in different places.

What was measured:
Kv11.1 (hERG) = Kv11.1 (hERG) (Homo sapiens (Human), UniProt Q12809); assay: Kv11.1 (hERG) ion channel activity (patch clamp assay), HEK293 cells transfected with hERG gene
[1] = target: DNA-PK phosphorylation at serine 2056 (Homo sapiens (Human), UniProt P78527); assay: DNA-PK phosphorylation at serine 2056 (cellular), bleomycin-treated HCT116 cells, ELISA; format: cell-based; settings: read-out: IC50 pDNA-PK
Summary of the method: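 Chemiluminescent ELISA quantified DNA-PK Ser2056 phosphorylation relative to total DNA-PKcs in HCT116 cells. Cells received compounds together with 10 μM bleomycin for 6 h; DMSO served as blank.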

DNA-PK = DNA-PK (Homo sapiens (Human), UniProt P78527); assay: DNA-PK assay (biochemical), flashplate 33P-ATP kinase assay
Summary of the method: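 Reactions ran in streptavidin-coated flashplates and were halted by 200 mM EDTA, with a further 30 min at room temperature before saline washing.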

[2] = read-out: Ki [Kv1.11 hERG], hERG patch clamp assay (cells without asterisk)
[3] = cellular DNA-PK phosphorylation at serine 2056, HCT116
[4] = read-out: Ki [Kv1.11 hERG], patch clamp, HEK293 transfected with hERG gene
[5] = cellular, HCT116 cells, 10 μM bleomycin, six hours
[6] = Ki [Kv1.11 hERG], hERG patch clamp assay (cells without asterisk)

Sequence of Kv11.1 (hERG) (Q12809 whole entry): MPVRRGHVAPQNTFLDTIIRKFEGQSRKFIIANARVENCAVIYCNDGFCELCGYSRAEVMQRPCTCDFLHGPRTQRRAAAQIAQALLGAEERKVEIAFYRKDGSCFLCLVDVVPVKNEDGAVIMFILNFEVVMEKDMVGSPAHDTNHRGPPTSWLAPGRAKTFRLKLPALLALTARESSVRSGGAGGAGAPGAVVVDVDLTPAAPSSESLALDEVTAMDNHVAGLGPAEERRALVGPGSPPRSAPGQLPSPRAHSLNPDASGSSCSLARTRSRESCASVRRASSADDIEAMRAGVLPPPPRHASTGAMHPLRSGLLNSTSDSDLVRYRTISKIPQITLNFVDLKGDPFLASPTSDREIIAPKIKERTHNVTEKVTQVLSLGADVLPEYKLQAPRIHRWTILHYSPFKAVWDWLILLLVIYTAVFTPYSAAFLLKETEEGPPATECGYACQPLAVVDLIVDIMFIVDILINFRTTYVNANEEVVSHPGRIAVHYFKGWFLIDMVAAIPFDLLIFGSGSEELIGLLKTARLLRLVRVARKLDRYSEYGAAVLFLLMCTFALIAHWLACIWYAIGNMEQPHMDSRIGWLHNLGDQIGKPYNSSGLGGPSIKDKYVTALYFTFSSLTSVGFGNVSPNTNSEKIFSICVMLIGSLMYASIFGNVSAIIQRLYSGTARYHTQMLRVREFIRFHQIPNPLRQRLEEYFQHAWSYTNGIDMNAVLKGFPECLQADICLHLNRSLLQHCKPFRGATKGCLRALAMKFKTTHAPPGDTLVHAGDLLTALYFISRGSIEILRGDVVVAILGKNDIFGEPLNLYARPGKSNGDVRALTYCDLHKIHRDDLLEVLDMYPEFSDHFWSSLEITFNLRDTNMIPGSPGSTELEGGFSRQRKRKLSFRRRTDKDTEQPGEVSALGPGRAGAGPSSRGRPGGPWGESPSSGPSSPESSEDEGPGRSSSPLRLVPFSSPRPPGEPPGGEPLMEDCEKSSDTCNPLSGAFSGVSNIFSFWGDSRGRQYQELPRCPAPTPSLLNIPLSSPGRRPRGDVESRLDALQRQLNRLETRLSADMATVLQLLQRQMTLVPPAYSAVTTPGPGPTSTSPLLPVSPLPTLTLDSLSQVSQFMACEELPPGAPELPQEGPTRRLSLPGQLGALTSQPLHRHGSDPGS

| IC50 [1, 3] [nM] | IC50 (DNA-PK; biochemical DNA-PK assay) [nM] | IC50 [1, 5] [nM] | IC50 (DNA-PK; enzymatic, 5 μM ATP) [nM] | SMILES | Ki (Kv11.1 (hERG); [4]) [nM] | Ki (Kv11.1 (hERG); [6]) [nM] | further results |
| --- | --- | --- | --- | --- | --- | --- | --- |
| – | – | < 500 | < 3 | OC(c1cc(-c2ncnc3cc(N4CCOCC4)ccc23)c(F)cc1F)c1ncnc2sccc12 (stereo not drawn) [Example 90, [2,4-Difluoro-5-(7-morpholin-4-yl-quinazolin-4-yl)-phenyl]thieno[2,3-d}-pyrimidin-4-ylmethanol] | > 25000 | – | – |
| – | – | 500 to 5000 | 3 to 7 | Cc1cc(F)c(-c2ncnc3cc(N4CCOCC4)ccc23)cc1C(O)c1nccs1 (stereo not drawn) [Example 210, [4-Fluoro-2-methyl-5-(7-morpholin-4-yl-quinazolin-4-yl)-phenyl]thiazol-2-ylmethanol] | > 25000 | – | – |
| < 500 | < 3 | – | – | OC(c1cc(-c2ncnc3cc(N4CCOCC4)ccc23)c(F)cc1Cl)c1ncnc2ccoc12 (stereo not drawn) [Example 441, [2-Chloro-4-fluoro-5-(7-morpholin-4-yl-quinazolin-4-yl)-phenyl]furo[3,2-d}-pyrimidin-4-yl-methanol] | – | 10000 to 15000 | – |
| – | – | 500 to 5000 | 7 to 30 | OC(c1ccc(F)c(-c2ncnc3cc(N4CCOCC4)ccc23)c1)c1cccnn1 (stereo not drawn) [Example 65, [4-Fluoro-3-(7-morpholin-4-yl-quinazolin-4-yl)phenyl]-pyridazin-3-ylmethanol] | > 25000 | – | – |
| – | – | < 500 | 3 to 7 | COc1cc(Cl)nnc1C(O)c1ccc(F)c(-c2ncnc3cc(N4CCOCC4)ccc23)c1 (stereo not drawn) [Example 10, (6-Chloro-4-methoxy-pyridazin-3-yl)-[4-fluoro-3-(7-morpholin-4-yl-quinazolin-4-yl)phenyl]-methanol] | > 25000 | – | – |
| 500 to 5000 | 3 to 7 | – | – | Cc1cncnc1C(O)c1cc(-c2ncnc3cc(N4CCOCC4)ccc23)ccc1F (stereo not drawn) [Example 392, [2-Fluoro-5-(7-morpholin-4-yl-quinazolin-4-yl)-phenyl]-(5-methyl-pyrimidin-4-yl)-methanol] | – | 15000 to 25000 | – |
| – | – | 500 to 5000 | 7 to 30 | CCOc1ccc(C(O)c2ccc(F)c(-c3ncnc4cc(N5CCOCC5)ccc34)c2)nn1 (stereo not drawn) [Example 134, (6-Ethoxy-pyridazin-3-yl)-[4-fluoro-3-(7-morpholin-4-yl-quinazolin-4-yl)-phenyl]methanol] | – | – | Ki (Kv11.1 (hERG); Ki [Kv1.11 hERG], patch clamp, HEK293 transfected with hERG gene): 10000 to 15000 nM |
| – | – | – | – | Cn1cc(C(O)c2ccc(F)c(-c3ncnc4cc(N5CCOCC5)ccc34)c2)cn1 (stereo not drawn) [Example 191, [4-Fluoro-3-(7-morpholin-4-yl-quinazolin-4-yl)-phenyl]-(1-methyl-1H-pyrazol-4-yl)-methanol] | – | – | Ki (Kv11.1 (hERG); read-out: Ki [Kv1.11 hERG], Table 5): > 25000 nM; IC50 ([1]; Table 5, HCT116 cells): 10000 to 30000 nM; IC50 (DNA-PK; Table 5): < 3 nM |
| 5000 to 10000 | 7 to 30 | – | – | Cn1c(C(O)c2cc(-c3ncnc4cc(N5CCOCC5)ccc34)ccc2F)cccc1=O (stereo not drawn) [Example 366, 6-{[2-Fluoro-5-(7-morpholin-4-yl-quinazolin-4-yl)-phenyl]hydroxy-methyl}-1-methyl-1H-pyridin-2-one] | – | – | Ki (Kv11.1 (hERG); [2]): > 25000 nM |
| 10000 to 30000 | > 30 | – | – | OC(c1cn2ccsc2n1)c1cc(-c2ncnc3cc(N4CCOCC4)ccc23)c(F)cc1F (stereo not drawn) [Example 474, [2,4-Difluoro-5-(7-morpholin-4-yl-quinazolin-4-yl)-phenyl]imidazo-[2,1-b]thiazol-6-yl-methanol] | – | 10000 to 15000 | – |
| < 500 | < 3 | – | – | OC(c1ccc(F)c(-c2ncnc3cc(N4CCOCC4)ccc23)c1)c1nncc2ccsc12 (stereo not drawn) [Example 332, [4-Fluoro-3-(7-morpholin-4-yl-quinazolin-4-yl)-phenyl]thieno[2,3-d}-pyridazin-7-yl-methanol] | – | 15000 to 25000 | – |

| SMILES | IC50 [1, 3] [nM] | IC50 (DNA-PK; biochemical DNA-PK assay) [nM] | IC50 [1, 5] [nM] | IC50 (DNA-PK; enzymatic, 5 μM ATP) [nM] | Ki (Kv11.1 (hERG); [4]) [nM] | Ki (Kv11.1 (hERG); [6]) [nM] | further results |
| --- | --- | --- | --- | --- | --- | --- | --- |
| OC(c1cc(-c2ncnc3cc(N4CCOCC4)ccc23)c(F)cc1F)c1nccnc1OC(F)F (stereo not drawn) [Example 449, (3-Difluoromethoxy-pyrazin-2-yl)-[2,4-difluoro-5-(7-morpholin-4-yl-quinazolin-4-yl)-phenyl]methanol] | 500 to 5000 | < 3 | – | – | – | – | Ki (Kv11.1 (hERG); [2]): > 25000 nM |
| Cc1cccnc1C(O)c1ccc(F)c(-c2ncnc3cc(N4CCOCC4)ccc23)c1 (stereo not drawn) [Example 472, [4-Fluoro-3-(7-morpholin-4-yl-quinazolin-4-yl)-phenyl]-(3-methyl-pyridin-2-yl)methanol] | < 500 | 3 to 7 | – | – | – | – | Ki (Kv11.1 (hERG); [2]): > 25000 nM |
